Results on six molecules are retold here after the NIST ThermoML archive (doi:10.1021/je049721u).

The conditions of data set [1]: 101.3 kPa, Liquid.
The nature of data set [2]: mn = molality of the nth substance listed, in mol/kg. Conditions: 101.3 kPa, Liquid, m2 = 0.

Where “and” joins values, the source holds several entries; their conditions need not be identical. Identical values can stand only once. ± gives the expanded uncertainty stated by the source.

Usually mass density stands for mass per unit of volume. For `CN(C)C=O` [dimethylformamide], the mass density in data set [1] (283.15 K) is 958.077 ± 0.58 kg/m3 and 958.163 ± 0.58 kg/m3 and 958.075 ± 0.58 kg/m3; in data set [1] (293.15 K) it was 948.565 ± 0.58 kg/m3 and 948.653 ± 0.59 kg/m3; in data set [1] (298.15 K), 943.797 ± 0.59 kg/m3 and 943.884 ± 0.59 kg/m3; in data set [1] (303.15 K), 939.017 ± 0.59 kg/m3 and 939.114 ± 0.59 kg/m3; in data set [1] (313.15 K), 929.529 ± 0.6 kg/m3 and 929.437 ± 0.6 kg/m3; in data set [1] (323.15 K), 919.807 ± 0.6 kg/m3 and 919.9 ± 0.61 kg/m3. Moreover, in data set [1] (333.15 K), the mass density was 910.12 ± 0.61 kg/m3 and 910.2 ± 0.61 kg/m3.
With `CN(C)C=O` [dimethylformamide] + [Co+2].[O-][Cl+3]([O-])([O-])[O-].[O-][Cl+3]([O-])([O-])[O-], the mass density turned out to be 958.163 ± 0.58 kg/m3 in data set [2] (283.15 K); 948.653 ± 0.59 kg/m3 in data set [2] (293.15 K); 943.884 ± 0.59 kg/m3 in data set [2] (298.15 K); 939.114 ± 0.59 kg/m3 in data set [2] (303.15 K); 929.529 ± 0.6 kg/m3 in data set [2] (313.15 K); 919.9 ± 0.61 kg/m3 in data set [2] (323.15 K). Besides, in data set [2] (333.15 K), the mass density worked out at 910.2 ± 0.61 kg/m3.
As to `CN(C)C=O` [dimethylformamide] + [Cu+2].[O-][Cl+3]([O-])([O-])[O-].[O-][Cl+3]([O-])([O-])[O-], the mass density in data set [2] (283.15 K) was 958.075 ± 0.58 kg/m3; in data set [2] (293.15 K) it was 948.565 ± 0.59 kg/m3; in data set [2] (298.15 K) it was 943.797 ± 0.59 kg/m3; in data set [2] (303.15 K) it was 939.017 ± 0.59 kg/m3; in data set [2] (313.15 K), 929.437 ± 0.6 kg/m3; in data set [2] (323.15 K), 919.807 ± 0.61 kg/m3. Also, in data set [2] (333.15 K), the mass density is reported as 910.12 ± 0.61 kg/m3.
As for `CN(C)C=O` [dimethylformamide] + [Mn+2].[O-][Cl+3]([O-])([O-])[O-].[O-][Cl+3]([O-])([O-])[O-], the mass density came out at 958.077 ± 0.58 kg/m3 in data set [2] (283.15 K); 948.565 ± 0.58 kg/m3 in data set [2] (293.15 K); 943.797 ± 0.59 kg/m3 in data set [2] (298.15 K); 939.017 ± 0.59 kg/m3 in data set [2] (303.15 K); 929.437 ± 0.6 kg/m3 in data set [2] (313.15 K); 919.807 ± 0.6 kg/m3 in data set [2] (323.15 K). Further, in data set [2] (333.15 K), the mass density stood at 910.12 ± 0.61 kg/m3.
As to `CN(C)C=O` [dimethylformamide] + [Ni+2].[O-][Cl+3]([O-])([O-])[O-].[O-][Cl+3]([O-])([O-])[O-], the mass density in data set [2] (283.15 K) is listed as 958.163 ± 0.58 kg/m3; in data set [2] (293.15 K) it was 948.653 ± 0.59 kg/m3; in data set [2] (298.15 K), 943.884 ± 0.59 kg/m3; in data set [2] (303.15 K), 939.114 ± 0.59 kg/m3; in data set [2] (313.15 K), 929.529 ± 0.6 kg/m3; in data set [2] (323.15 K) it was 919.9 ± 0.61 kg/m3. The mass density in data set [2] (333.15 K) came to 910.2 ± 0.61 kg/m3.
For `CN(C)C=O` [dimethylformamide] + [O-][Cl+3]([O-])([O-])[O-].[O-][Cl+3]([O-])([O-])[O-].[Zn+2], the mass density in data set [2] (283.15 K) stood at 958.163 ± 0.58 kg/m3; in data set [2] (293.15 K), 948.653 ± 0.59 kg/m3; in data set [2] (298.15 K) it was 943.884 ± 0.59 kg/m3; in data set [2] (303.15 K), 939.114 ± 0.59 kg/m3; in data set [2] (313.15 K), 929.529 ± 0.6 kg/m3; in data set [2] (323.15 K), 919.9 ± 0.61 kg/m3. For the same molecule, the mass density in data set [2] (333.15 K) turned out to be 910.2 ± 0.61 kg/m3.
